Experimental data from ChEMBL document CHEMBL5291721, “A preclinical secondary pharmacology resource illuminates target-adverse drug reaction associations of marketed drugs” (Nat Commun, 2023).

Columns and labels:
[1] = target: T1, Muscarinic acetylcholine receptor M1 (Homo sapiens, UniProt P11229); format: functional, cell-based
T1 sequence (P11229 whole entry): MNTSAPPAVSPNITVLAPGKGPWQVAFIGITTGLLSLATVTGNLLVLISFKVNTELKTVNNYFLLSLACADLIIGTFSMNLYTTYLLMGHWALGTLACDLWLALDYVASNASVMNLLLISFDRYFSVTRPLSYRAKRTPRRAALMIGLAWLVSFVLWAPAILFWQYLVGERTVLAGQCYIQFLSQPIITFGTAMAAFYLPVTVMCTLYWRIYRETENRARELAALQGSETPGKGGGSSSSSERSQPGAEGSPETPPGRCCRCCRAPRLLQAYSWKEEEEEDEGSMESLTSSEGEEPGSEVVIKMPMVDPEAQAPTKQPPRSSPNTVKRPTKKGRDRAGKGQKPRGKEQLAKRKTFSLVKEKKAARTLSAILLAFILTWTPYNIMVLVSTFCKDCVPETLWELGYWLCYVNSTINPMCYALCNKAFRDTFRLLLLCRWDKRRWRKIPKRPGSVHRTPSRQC

[2] = target: T2, Alpha-1A adrenergic receptor (Homo sapiens, UniProt P35348); format: functional, cell-based
T2 sequence (P35348 whole entry): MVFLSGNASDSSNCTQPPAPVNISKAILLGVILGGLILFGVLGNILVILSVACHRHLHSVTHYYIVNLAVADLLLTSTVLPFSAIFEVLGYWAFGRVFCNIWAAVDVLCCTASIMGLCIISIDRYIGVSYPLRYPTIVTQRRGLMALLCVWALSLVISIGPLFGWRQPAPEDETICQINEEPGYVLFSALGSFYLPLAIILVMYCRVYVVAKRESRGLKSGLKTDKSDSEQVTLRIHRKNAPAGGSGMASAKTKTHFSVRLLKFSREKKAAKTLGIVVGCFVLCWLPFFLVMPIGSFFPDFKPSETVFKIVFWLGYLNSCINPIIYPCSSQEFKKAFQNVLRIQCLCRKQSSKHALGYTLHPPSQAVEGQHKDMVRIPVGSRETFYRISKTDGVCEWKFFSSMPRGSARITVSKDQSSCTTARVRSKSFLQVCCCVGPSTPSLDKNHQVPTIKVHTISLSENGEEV

[3] = target: Beta-2 adrenergic receptor (Homo sapiens, UniProt P07550); format: functional, cell-based
Sequence of Beta-2 adrenergic receptor (P07550 whole entry): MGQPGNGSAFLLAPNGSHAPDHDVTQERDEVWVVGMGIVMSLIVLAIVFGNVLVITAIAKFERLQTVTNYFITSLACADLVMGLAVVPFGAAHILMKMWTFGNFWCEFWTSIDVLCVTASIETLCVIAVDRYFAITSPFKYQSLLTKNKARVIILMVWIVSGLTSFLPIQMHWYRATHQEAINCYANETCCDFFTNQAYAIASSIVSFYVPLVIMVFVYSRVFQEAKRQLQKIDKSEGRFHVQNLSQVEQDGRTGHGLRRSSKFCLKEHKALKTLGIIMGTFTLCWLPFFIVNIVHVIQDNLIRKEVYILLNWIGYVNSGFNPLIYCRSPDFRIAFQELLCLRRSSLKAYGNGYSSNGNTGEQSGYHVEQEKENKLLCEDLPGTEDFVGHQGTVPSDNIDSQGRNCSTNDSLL

Mu-type opioid receptor = Mu-type opioid receptor (Homo sapiens, UniProt P35372); assay: biochemical; format: functional
Sequence of Mu-type opioid receptor (P35372 whole entry): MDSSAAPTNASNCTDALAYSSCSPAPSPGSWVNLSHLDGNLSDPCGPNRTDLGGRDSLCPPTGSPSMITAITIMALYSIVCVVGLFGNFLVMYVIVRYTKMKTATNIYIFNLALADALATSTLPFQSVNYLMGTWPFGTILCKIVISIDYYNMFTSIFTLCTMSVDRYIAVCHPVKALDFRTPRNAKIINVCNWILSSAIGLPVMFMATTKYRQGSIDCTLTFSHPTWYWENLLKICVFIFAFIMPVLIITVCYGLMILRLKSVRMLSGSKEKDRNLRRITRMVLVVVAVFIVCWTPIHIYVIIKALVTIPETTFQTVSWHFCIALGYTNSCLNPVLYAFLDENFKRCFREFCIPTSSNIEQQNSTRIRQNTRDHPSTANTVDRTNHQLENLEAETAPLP

Cannabinoid receptor 1 = Cannabinoid receptor 1 (Homo sapiens, UniProt P21554)
Sequence of Cannabinoid receptor 1 (P21554 whole entry): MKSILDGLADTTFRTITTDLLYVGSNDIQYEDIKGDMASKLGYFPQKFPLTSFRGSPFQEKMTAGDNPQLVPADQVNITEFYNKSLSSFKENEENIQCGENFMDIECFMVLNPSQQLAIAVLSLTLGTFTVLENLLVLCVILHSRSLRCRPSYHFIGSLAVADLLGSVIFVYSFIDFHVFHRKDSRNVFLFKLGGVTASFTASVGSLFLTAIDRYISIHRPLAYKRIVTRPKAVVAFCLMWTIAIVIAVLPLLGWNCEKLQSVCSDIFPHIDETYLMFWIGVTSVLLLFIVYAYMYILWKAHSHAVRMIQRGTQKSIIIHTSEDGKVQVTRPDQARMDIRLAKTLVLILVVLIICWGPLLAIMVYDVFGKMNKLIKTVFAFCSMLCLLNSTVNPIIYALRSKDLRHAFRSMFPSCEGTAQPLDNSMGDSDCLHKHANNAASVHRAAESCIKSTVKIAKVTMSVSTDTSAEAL

[4] = target: Gamma-aminobutyric acid receptor subunit alpha-1 (Rattus norvegicus, UniProt P62813)
Sequence of Gamma-aminobutyric acid receptor subunit alpha-1 (P62813 whole entry): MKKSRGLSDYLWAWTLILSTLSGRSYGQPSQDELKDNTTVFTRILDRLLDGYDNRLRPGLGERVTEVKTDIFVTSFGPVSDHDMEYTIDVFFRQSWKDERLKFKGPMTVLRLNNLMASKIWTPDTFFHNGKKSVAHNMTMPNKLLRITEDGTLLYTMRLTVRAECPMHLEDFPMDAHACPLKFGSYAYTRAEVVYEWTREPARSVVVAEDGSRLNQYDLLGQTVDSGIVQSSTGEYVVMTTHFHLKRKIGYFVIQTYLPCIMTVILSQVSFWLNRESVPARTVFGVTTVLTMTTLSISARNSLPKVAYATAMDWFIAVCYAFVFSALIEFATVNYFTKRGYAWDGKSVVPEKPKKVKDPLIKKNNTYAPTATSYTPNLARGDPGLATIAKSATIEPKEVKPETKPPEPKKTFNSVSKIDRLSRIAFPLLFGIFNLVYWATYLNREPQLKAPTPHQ

[5] = target: T3, 5-hydroxytryptamine receptor 1A (Homo sapiens, UniProt P08908)
T3 sequence (P08908 whole entry): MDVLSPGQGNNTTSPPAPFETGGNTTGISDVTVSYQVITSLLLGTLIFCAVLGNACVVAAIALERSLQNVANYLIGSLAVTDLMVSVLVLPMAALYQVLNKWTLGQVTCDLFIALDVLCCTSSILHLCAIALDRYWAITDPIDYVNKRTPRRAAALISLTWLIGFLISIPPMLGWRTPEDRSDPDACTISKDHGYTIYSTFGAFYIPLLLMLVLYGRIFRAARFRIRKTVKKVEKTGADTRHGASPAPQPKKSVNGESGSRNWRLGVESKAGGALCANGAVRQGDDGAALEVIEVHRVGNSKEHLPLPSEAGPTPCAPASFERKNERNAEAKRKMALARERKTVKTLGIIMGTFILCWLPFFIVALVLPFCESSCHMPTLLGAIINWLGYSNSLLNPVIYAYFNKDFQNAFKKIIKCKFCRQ

[6] = target: 3',5'-cyclic-AMP phosphodiesterase 4A (Homo sapiens, UniProt P27815); format: functional
Sequence of 3',5'-cyclic-AMP phosphodiesterase 4A (P27815 whole entry): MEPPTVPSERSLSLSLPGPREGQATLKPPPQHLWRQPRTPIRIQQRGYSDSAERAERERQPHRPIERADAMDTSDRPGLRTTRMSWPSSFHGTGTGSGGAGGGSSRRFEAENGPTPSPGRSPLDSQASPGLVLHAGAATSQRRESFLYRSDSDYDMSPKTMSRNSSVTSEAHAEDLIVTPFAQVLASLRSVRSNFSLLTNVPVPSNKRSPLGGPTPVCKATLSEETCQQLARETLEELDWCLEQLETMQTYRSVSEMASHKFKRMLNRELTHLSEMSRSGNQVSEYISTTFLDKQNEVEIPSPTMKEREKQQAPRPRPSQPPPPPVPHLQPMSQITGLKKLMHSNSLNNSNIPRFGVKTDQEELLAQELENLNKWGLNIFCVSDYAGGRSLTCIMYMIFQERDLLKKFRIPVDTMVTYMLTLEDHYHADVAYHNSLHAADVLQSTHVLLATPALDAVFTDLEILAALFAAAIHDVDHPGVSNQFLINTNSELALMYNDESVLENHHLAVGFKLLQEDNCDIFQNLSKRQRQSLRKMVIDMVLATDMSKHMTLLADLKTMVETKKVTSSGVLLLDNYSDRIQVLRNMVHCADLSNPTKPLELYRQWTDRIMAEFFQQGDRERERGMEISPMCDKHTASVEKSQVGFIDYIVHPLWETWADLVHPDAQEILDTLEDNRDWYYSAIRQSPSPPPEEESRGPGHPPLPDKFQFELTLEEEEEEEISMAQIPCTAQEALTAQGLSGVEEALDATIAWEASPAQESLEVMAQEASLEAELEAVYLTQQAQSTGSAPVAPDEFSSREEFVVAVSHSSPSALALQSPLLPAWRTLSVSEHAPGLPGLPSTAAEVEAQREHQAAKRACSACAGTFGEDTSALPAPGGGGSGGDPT

D(1A) dopamine receptor = D(1A) dopamine receptor (Homo sapiens, UniProt P21728); format: functional, cell-based
Sequence of D(1A) dopamine receptor (P21728 whole entry): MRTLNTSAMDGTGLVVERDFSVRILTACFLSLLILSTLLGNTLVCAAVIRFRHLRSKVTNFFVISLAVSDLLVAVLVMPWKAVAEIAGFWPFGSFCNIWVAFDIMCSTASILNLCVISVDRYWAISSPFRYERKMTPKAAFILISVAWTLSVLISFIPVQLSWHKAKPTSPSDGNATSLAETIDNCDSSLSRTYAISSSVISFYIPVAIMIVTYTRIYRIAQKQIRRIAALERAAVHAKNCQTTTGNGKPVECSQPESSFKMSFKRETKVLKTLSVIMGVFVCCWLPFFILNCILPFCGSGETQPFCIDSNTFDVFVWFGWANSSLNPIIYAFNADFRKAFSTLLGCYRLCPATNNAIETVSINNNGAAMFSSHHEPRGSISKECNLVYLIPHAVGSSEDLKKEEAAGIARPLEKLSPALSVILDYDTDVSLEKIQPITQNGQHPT

Vasopressin V1a receptor = Vasopressin V1a receptor (Homo sapiens, UniProt P37288)
Sequence of Vasopressin V1a receptor (P37288 whole entry): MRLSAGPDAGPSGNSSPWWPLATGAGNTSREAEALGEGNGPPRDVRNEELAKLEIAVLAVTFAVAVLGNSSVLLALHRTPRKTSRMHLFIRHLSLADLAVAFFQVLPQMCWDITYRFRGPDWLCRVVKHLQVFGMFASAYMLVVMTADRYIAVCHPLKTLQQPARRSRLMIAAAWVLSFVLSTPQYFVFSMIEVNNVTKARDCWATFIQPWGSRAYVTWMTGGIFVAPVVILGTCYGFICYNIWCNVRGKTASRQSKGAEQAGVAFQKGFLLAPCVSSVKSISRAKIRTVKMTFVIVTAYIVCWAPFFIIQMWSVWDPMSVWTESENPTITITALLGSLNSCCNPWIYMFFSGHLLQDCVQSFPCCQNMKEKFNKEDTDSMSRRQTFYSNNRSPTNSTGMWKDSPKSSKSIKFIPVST

Prothrombin = Prothrombin (Homo sapiens, UniProt P00734); format: functional
[7] = target: Muscarinic acetylcholine receptor M3 (Homo sapiens, UniProt P20309)
Sequence of Muscarinic acetylcholine receptor M3 (P20309 whole entry): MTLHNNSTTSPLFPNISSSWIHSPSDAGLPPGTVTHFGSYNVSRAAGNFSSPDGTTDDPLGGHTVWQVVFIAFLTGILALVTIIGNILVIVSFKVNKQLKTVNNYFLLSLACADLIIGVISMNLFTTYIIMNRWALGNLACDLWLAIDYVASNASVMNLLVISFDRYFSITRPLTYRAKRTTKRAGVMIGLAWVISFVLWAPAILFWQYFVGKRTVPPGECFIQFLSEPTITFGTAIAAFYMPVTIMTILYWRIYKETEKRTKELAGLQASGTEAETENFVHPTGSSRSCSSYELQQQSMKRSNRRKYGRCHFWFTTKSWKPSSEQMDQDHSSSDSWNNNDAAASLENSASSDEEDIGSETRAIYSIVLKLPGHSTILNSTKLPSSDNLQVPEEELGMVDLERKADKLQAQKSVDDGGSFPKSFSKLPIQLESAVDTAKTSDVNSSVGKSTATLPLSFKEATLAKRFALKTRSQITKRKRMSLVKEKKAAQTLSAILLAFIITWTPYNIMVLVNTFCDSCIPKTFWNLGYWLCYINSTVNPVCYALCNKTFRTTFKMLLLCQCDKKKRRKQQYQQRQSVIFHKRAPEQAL

[8] = target: Sodium-dependent dopamine transporter (Homo sapiens, UniProt Q01959)
Sequence of Sodium-dependent dopamine transporter (Q01959 whole entry): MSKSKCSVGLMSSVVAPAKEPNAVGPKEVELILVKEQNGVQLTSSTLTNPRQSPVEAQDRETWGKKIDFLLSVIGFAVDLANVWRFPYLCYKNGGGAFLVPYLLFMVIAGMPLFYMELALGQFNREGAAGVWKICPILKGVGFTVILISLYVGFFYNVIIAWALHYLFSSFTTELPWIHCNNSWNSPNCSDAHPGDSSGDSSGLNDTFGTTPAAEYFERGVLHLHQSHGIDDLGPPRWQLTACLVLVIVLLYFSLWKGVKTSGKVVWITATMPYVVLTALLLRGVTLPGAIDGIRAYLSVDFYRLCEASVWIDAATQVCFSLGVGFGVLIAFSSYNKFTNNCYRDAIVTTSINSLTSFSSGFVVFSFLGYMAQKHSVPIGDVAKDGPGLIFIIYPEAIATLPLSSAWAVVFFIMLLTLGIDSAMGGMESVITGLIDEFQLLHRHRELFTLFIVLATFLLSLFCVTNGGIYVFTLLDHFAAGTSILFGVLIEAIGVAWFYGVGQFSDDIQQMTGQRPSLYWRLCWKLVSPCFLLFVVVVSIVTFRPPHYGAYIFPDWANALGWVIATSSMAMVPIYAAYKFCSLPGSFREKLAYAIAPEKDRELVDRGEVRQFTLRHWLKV

Measured: AC50
Further: assay procedure not described here.

CCC(=O)O[C@]1(C(=O)SCF)[C@H](C)C[C@H]2[C@@H]3C[C@H](F)C4=CC(=O)C=C[C@]4(C)[C@@]3(F)[C@@H](O)C[C@@]21C [FLUTICASONE PROPIONATE]
> 30 µM: all assays above
